The text below walks through data of publication PMC6933084 (Journal of medicinal chemistry, 2019).

In experiment [1] the target is T1, WDR5 (Homo sapiens, UniProt P61964). To be noted: for binding affinity for WDR5 (in words): FPA.
In experiment [2] the target is T1, WDR5. In words: Thermal shift by differential scanning fluorimetry. Type of experiment: binding. To be noted: DSF; 10 μM, or ten-point dilution for 7k. A general note: Differential scanning fluorimetry follows unfolding on heating by fluorescence.
For the next experiment, the target named is WDR5-c-MYC (Homo sapiens, UniProt P61964). Type of experiment: biochemical. The settings on record: HEK293 lysates; lowest concentration tested (6.25 μM).
Another experiment concerns the target WDR5-RBBP5 (Homo sapiens, UniProt P61964). Type of experiment: biochemical. The settings on record: HEK293 lysates; lowest concentration tested (6.25 μM).
Experiment [3] has as its target T1, WDR5. In words: biochemical.

On to `COc1ccccc1S(=O)(=O)Nc1cc(Cl)ccc1O` [Compound 5a, N-(5-Chloro-2-hydroxyphenyl)-2-methoxybenzenesulfonamide], for which the “binding affinity for WDR5 (in words)” value on WDR5 [1] was “all binding affinity for WDR5 is lost”. `O=S(=O)(Nc1cc(S(F)(F)(F)(F)F)ccc1O)c1cc(Br)ccc1O` [Compound 5k, 5-Bromo-2-hydroxy-N-(2-hydroxy-5-(pentafluorosulfanyl)phenyl)benzenesulfonamide]: the “improved binding affinity in comparison to 5l” value on WDR5 [1] (FPA Kd ratio vs trifluoromethyl cyclopropane 5l) is ~ 5 fold. On to `O=C(O)c1cc(S(F)(F)(F)(F)F)cc(NS(=O)(=O)c2cc(Br)cc(Cl)c2O)c1O` [Compound 6o, 3-((5-Bromo-3-chloro-2-hydroxyphenyl)sulfonamido)-2-hydroxy-5-(pentafluorosulfanyl)benzoic acid], for which the “WDR5 stabilization by thermal shift (in words)” value on WDR5 [2] is given as “largest ΔTm”. With `N#CC1(c2cc(NS(=O)(=O)c3cc(Br)cc(Cl)c3O)c(O)c(C(=O)O)c2)CCC1` [Compound 6r, 3-((5-Bromo-3-chloro-2-hydroxyphenyl)sulfonamido)-5-(1-cyanocyclobutyl)-2-hydroxybenzoic acid], the “disruption of the association WDR5-c-MYC at the lowest concentration tested” value at WDR5-c-MYC is given as “marked disruption”. In addition, the “WDR5 stabilization by thermal shift (in words)” value on WDR5 [2] is on record as “largest ΔTm”. Also, the “disruption of the association WDR5-RBBP5 at the lowest concentration tested” value at WDR5-RBBP5 is reported as “marked disruption”. For the molecule `N#CC1(c2cc(NS(=O)(=O)c3cc(Br)cc(Cl)c3O)c(O)c(C(=O)O)c2)CCCCC1` [Compound 6t, 3-((5-Bromo-3-chloro-2-hydroxyphenyl)sulfonamido)-5-(1-cyanocyclohexyl)-2-hydroxybenzoic acid], the “WDR5 stabilization by thermal shift (in words)” value at WDR5 [2] is recorded as “largest ΔTm”. The same measure, in the same setting: then `CNC(=O)c1cc(C2(C#N)CCC2)cc(NS(=O)(=O)c2cc(Br)cc(Cl)c2O)c1O` [Compound 7k, 3-((5-Bromo-3-chloro-2-hydroxyphenyl)sulfonamido)-5-(1-cyanocyclobutyl)-2-hydroxy-N-methylbenzamide], with “concentration-dependent response”. Usually Kd stands for the constant that tells how readily two partners part at equilibrium. In turn, `N#CC1(c2cc(NS(=O)(=O)c3cc(Br)ccc3O)c(O)c(C(=O)Nc3nc[nH]n3)c2)CCC1` [Compound 7n, 3-((5-Bromo-2-hydroxyphenyl)sulfonamido)-5-(1-cyanocyclobutyl)-2-hydroxy-N-(1H-1,2,4-triazol-3-yl)benzamide] displayed a dissociation constant Kd on WDR5 [3] of 46 ± 14 nM. In turn, `COCCNC(=O)c1cc(C2(C#N)CCC2)cc(NS(=O)(=O)c2cc(Br)ccc2O)c1O` [Compound 7o, 3-((5-Bromo-2-hydroxyphenyl)sulfonamido)-5-(1-cyanocyclobutyl)-2-hydroxy-N-(2-methoxyethyl)benzamide] had a Kd on WDR5 [3] of 757 ± 17 nM. `COc1ccc(Br)cc1S(=O)(=O)Nc1cc(Cl)cc(S(C)(=O)=O)c1O` [Compound 8, 5-Bromo-N-(5-chloro-2-hydroxy-3-(methylsulfonyl)phenyl)-2-methoxybenzenesulfonamide]: the “binding affinity for WDR5 (in words)” value on WDR5 [1] was “sub-micromolar affinity”.

As to `CNC(=O)c1cc(C2(C#N)CCC2)cc(NS(=O)(=O)c2cc(Br)ccc2OC)c1O` [Compound 9, 3-((5-Bromo-2-methoxyphenyl)sulfonamido)-5-(1-cyanocyclobutyl)-2-hydroxy-N-methylbenzamide], on WDR5 [1], the “binding affinity for WDR5 (in words)” value is reported as “sub-micromolar affinity”.
